Assay results as given in patent publication US9918934B2, “Linker-based lecithin microemulsion delivery vehicles” (priority 2006, dated 2018).

How the values were obtained:
[1] = test system: reconstructed human skin EpiDerm™ EPI-200; type: in vitro ADME
Procedure: Lidocaine permeability was measured in vitro through reconstructed human skin EpiDerm™ EPI-200 and dorsal pig ear skin using selected formulations of examples 1 through 3. The model skin was placed in a commercial MATTEK™ Permeation Device (MPD). A test formulation (0.4 mL) was applied in the donor compartment. The receptor compartment was filled with 5 mL of PBS (0.01M phosphate, 0.137M NaCl, pH 7.4). At predetermined time, the receiver solution was withdrawn completely from the receptor compartment and was immediately replaced by fresh buffer solution. Sink conditions were maintained at all times. At 5.5 h, the experiment was terminated. All permeation experiments were conducted in triplicate at room temperature.
Lidocaine in receiver solutions was assayed by a UV spectrophotometer ([…] PLUS™, Amersham Pharmacia Biotech, U.S.A.). Receiver solutions were diluted with methanol and the absorbance at 230 nm were measured. A linear calibration curve for lidocaine was obtained at 230 nm in a range of 0-100 μg/mL with a linearity of 0.999.
The cumulative lidocaine amount permeated across the skin was plotted as a function of time (h), and average steady-state flux (J, μg/h/cm2) was calculated by dividing the slope from the linear part of the curve by the area of the exposed skin surface (0.256 cm2). […]

dorsal pig ear skin = type: in vitro ADME
Procedure: The model skin was placed in a commercial MATTEK™ Permeation Device (MPD). A test formulation (0.4 mL) was applied in the donor compartment. […] At predetermined time, the receiver solution was withdrawn completely from the receptor compartment and was immediately replaced by fresh buffer solution. Sink conditions were maintained at all times. At 5.5 h, the experiment was terminated. All permeation experiments were conducted in triplicate at room temperature.
Receiver solutions were diluted with methanol and the absorbance at 230 nm were measured.
The cumulative lidocaine amount permeated across the skin was plotted as a function of time (h), and average steady-state flux (J, μg/h/cm2) was calculated by dividing the slope from the linear part of the curve by the area of the exposed skin surface (0.256 cm2).
To measure the concentration of lidocaine in pig ear skin, the tissue was removed from the MATTEK™ permeation device, rinse with PBS solution and blotted with lint-free paper tissue to remove any excess of fluid. The tissue was immersed in 2 mL of methanol for a period of 24 hr. After that time, the concentration of lidocaine was measured using the HPLC method described above. The mass of lidocaine extracted is divided by the volume of the tissue (tissue thickness*cross sectional area) to obtain the equivalent lidocaine concentration in the skin. The skin permeability is calculated by dividing the transdermal flux by the lidocaine skin concentration.
The formulation LO-32 (a Type II lecithin linker microemulsion) was reformulated using lower lecithin concentration. The transdermal flux through pig ear dorsal skin was also evaluated for selected formulations, and following the procedures described above. […] (Where: (a) is lecithin; (b) is sorbitan monooleate; (c) is octanoic acid; (d) is sodium octanoate; (e) is water; (f) is lidocaine; (g) is isopropyl myristate; and (v) is microemulsion volume. Concentrations are expressed on a weight percentage basis (w/w).)

MatTek Flux (lidocaine steady-state transdermal flux) [1]	Pig ear skin Flux (lidocaine steady-state transdermal flux) (dorsal pig ear skin)	Pig ear skin Lidocaine in skin (dorsal pig ear skin) [µg/mL]	Pig skin permeability (dorsal pig ear skin)	Flux (lidocaine transdermal flux through excised pig ear skin) (dorsal pig ear skin)	Substance
160 +/− 10 μg/hr-cm^2	130 +/− 20 μg/hr-cm^2	5800 ± 200	220 +/− 20 μm/hr	–	Pentanol
320 +/− 20 μg/hr-cm^2	110 +/− 10 μg/hr-cm^2	6800 ± 400	160 +/− 20 μm/hr	70 +/− 10 μg/cm^2	Water
